Reference: patent publication US20250213563A1, “SUBSTITUTED PYRIMIDIN-4(3H)-ONES FOR USE IN TREATING CANCER” (NAVIRE PHARMA, INC., priority 2021, published 2025)
Like-named read-outs stand apart in the source and are kept apart here.

How the values were obtained:
[1] = tested on: HCC827; assay: pERK protein levels (HTRF); assay type: cell-based; conditions: Homo sapiens; HCC827, EGFR^Ex19del
Protocol: (§1) The potency of Compound (10b) in a panel of human tumor cell lines with active MAPK signaling was assessed. Cell viability in a 3D culture system was assessed by measuring CellTiter-Glo (CTG) luminescence following 8 days of treatment with nine concentrations of Compound (10b). MAPK pathway signaling was assessed by measuring pERK protein levels and DUSP6 mRNA levels by homogeneous time resolved fluorescence (HTRF) and quantitative polymerase chain reaction (qPCR), respectively. […] These viability effects correlated with pERK inhibition (Table 2, FIG. 6B) and DUSP6 inhibition (FIG. 6C).

[2] = tested on: KYSE-520; assay: pERK protein levels (HTRF); assay type: cell-based; conditions: Homo sapiens; KYSE-520, EGFR^amp
Protocol: as §1

[3] = tested on: NCI-H1299; assay: pERK protein levels (HTRF); assay type: cell-based; conditions: Homo sapiens; NCI-H1299, NRAS^Q61K
Protocol: as §1

[4] = tested on: NCI-H1975; assay: pERK protein levels (HTRF); assay type: cell-based; conditions: Homo sapiens; NCI-H1975, EGFR^L858R/T790M
Protocol: as §1

[5] = tested on: NCI-H358; assay: pERK protein levels (HTRF); assay type: cell-based; conditions: Homo sapiens; NCI-H358, KRAS^G12C
Protocol: as §1

[6] = tested on: HCC827; assay: 3D cell viability (CellTiter-Glo); assay type: cell-based; conditions: Homo sapiens, 192 h; HCC827, EGFR^Ex19del; 8 days of treatment; read-out: 3D CTG (IC50)
Protocol: as §1

[7] = tested on: KYSE-520; assay: 3D cell viability (CellTiter-Glo); assay type: cell-based; conditions: Homo sapiens, 192 h; KYSE-520, EGFR^amp; 8 days of treatment; read-out: 3D CTG (IC50)
Protocol: as §1

[8] = tested on: NCI-H1299; assay: 3D cell viability (CellTiter-Glo); assay type: cell-based; conditions: Homo sapiens, 192 h; NCI-H1299, NRAS^Q61K; 8 days of treatment; read-out: 3D CTG (IC50)
Protocol: as §1

[9] = tested on: NCI-H1975; assay: 3D cell viability (CellTiter-Glo); assay type: cell-based; conditions: Homo sapiens, 192 h; NCI-H1975, EGFR^L858R/T790M; 8 days of treatment; read-out: 3D CTG (IC50)
Protocol: as §1

[10] = tested on: NCI-H358; assay: 3D cell viability (CellTiter-Glo); assay type: cell-based; conditions: Homo sapiens, 192 h; NCI-H358, KRAS^G12C; 8 days of treatment; read-out: 3D CTG (IC50)
Protocol: as §1

[11] = Phase 1/1B first-in-human study, safety and PK (Cohorts 1-5); assay type: in vivo; parameters: Cmax/D / AUC/D: unit not given beside the values; conditions: for AUC/D: calculated using AUClast; for AUC(0-t) / Cmax / Tmax / half-life: human, plasma
From the text: The initial results were from Cohorts 1-5 of the Phase 1/1B First-in-Human Study of Example 6.
No safety findings impacting the risk or benefit of compound (10b) reported in the 19 patients dosed. Nine (9) treatment-emergent serious adverse events (SAEs) were reported in 7 patients, none of which were deemed related to the treatment with compound (10b).

[12] = tested on: pERK in PBMC; assay: Phase 1/1B first-in-human study, PBMC pERK inhibition; assay type: in vivo
[13] = target: hERG potassium channel (Homo sapiens, UniProt Q12809); assay: hERG manual whole cell patch clamp in CHO cells
Protocol: HERG channel currents were recorded from single cells using standard whole cell recording techniques. The cells were voltage clamped at a holding potential of −80 mV. The hERG current was activated by depolarizing at +20 mV for 5 sec, after which the current was taken back to −50 mV for 5 sec to remove the inactivation and observe the deactivating tail current. The K+ tail current through HERG channels observed during this step was allowed to stabilize under continuous bath perfusion. […] Steady state was considered reached when three consecutive super-imposable current records were collected.

[14] = 250 mg QD, C1D1, N=2 (1 subject excluded)
[15] = oral, 80 mg, 80 mg QD, C1D1, N=1
[16] = oral, 80 mg, 80 mg QD, C2D1, N=1
[17] = oral, 150 mg, 150 mg QD, C1D1, N=3
[18] = oral, 150 mg, 150 mg QD, C2D1, N=3
[19] = oral, 250 mg, 250 mg QD, C1D1, N=2 (1 subject excluded)
[20] = oral, 250 mg, 250 mg QD, C2D1, N=1
[21] = oral, 400 mg, 400 mg QD, C1D1, N=5
[22] = oral, 400 mg, 400 mg QD, C2D1, N=3
[23] = oral, 550 mg, 550 mg QD, C1D1, N=6

hERG potassium channel, sequence (Q12809 whole entry): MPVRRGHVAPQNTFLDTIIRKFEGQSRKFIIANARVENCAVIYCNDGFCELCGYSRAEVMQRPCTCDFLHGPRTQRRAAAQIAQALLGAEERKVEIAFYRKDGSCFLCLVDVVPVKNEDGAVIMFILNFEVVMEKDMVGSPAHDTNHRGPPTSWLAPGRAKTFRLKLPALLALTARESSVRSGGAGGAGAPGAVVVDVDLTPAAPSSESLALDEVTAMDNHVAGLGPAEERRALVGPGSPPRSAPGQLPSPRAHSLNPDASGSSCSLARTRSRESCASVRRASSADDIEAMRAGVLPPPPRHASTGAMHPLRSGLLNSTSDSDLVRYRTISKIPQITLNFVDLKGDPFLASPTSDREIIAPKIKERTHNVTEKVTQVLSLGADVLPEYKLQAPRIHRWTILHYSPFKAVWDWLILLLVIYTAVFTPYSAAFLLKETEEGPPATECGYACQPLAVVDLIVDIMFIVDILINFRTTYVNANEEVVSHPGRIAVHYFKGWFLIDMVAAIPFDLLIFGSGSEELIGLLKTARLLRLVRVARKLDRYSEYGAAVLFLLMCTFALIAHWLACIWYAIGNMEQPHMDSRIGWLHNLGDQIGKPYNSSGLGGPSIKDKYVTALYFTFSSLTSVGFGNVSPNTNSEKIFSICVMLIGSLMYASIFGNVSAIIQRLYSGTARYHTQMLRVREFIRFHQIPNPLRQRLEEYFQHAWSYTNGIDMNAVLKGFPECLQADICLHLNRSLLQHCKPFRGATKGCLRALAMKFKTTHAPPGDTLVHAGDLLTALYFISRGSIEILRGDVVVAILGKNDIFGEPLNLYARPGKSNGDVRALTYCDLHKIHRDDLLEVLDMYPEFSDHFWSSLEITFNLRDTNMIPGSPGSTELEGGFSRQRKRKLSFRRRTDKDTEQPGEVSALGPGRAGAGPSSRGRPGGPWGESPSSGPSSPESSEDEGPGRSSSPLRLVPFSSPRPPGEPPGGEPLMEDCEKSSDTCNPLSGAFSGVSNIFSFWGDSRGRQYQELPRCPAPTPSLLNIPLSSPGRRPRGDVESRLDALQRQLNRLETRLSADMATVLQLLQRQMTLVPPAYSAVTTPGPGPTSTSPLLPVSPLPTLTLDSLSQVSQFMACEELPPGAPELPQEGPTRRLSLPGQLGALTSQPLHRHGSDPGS

Compound: Cc1c(N2CCC3(CC2)CO[C@@H](C)[C@H]3N)nc(C)n(-c2cccc(Cl)c2Cl)c1=O (atropisomer, axis not shown; (Ra)) [Compound (10b), 6-((3S,4S)-4-amino-3-methyl-2-oxa-8-azaspiro[4.5]decan-8-yl)-3-(Ra)-(2,3-dichlorophenyl)-2,5-dimethylpyrimidin-4(3H)-one]
- IC50 [1]: 0.46 µM
- IC50 [2]: 0.073 µM
- IC50 [3]: > 25 µM
- IC50 [4]: 0.4 µM
- IC50 [5]: 0.48 µM
- IC50 [6]: 1.2 µM
- IC50 [7]: 0.21 µM
- IC50 [8]: > 25 µM
- IC50 [9]: 0.18 µM
- IC50 [10]: 0.28 µM
- Cmax/D ([11]; 80 mg QD, C1D1, N=1): 5.06
- AUC/D ([11]; 80 mg QD, C1D1, N=1): 61.1
- P/T Ratio ([11]; 80 mg QD, C2D1, N=1): 6.82
- Cmax/D ([11]; 150 mg QD, C1D1, N=3): 4.34
- AUC/D ([11]; 150 mg QD, C1D1, N=3): 64.3
- P/T Ratio ([11]; 150 mg QD, C2D1, N=3): 3.19
- Cmax/D [11, 14]: 3.19
- AUC/D [11, 14]: 42.4
- P/T Ratio ([11]; 250 mg QD, C2D1, N=1): 2.81
- Cmax/D ([11]; 400 mg QD, C1D1, N=5): 3.85
- AUC/D ([11]; 400 mg QD, C1D1, N=5): 47.0
- P/T Ratio ([11]; 400 mg QD, C2D1, N=3): 3.42
- Cmax/D ([11]; 550 mg QD, C1D1, N=6): 4.63
- AUC/D ([11]; 550 mg QD, C1D1, N=6): 68.6
- Number of patients (n = 19) with TEAE: Constipation ([11]; Cohorts 1-5): 1
- Number of patients (n = 19) with TEAE: Diarrhea ([11]; Cohorts 1-5): 5
- Number of patients (n = 19) with TEAE: Edema ([11]; Cohorts 1-5): 4
- Number of patients (n = 19) with TEAE: LFT increases ([11]; Cohorts 1-5): 2
- Number of patients (n = 19) with TEAE: LVEF decrease ([11]; Cohorts 1-5): 1
- Number of patients (n = 19) with TEAE: Nausea/vomiting ([11]; Cohorts 1-5): 4
- Number of patients (n = 19) with TEAE: Rash ([11]; Cohorts 1-5): 2
- adverse events leading to study discontinuation ([11]; Cohorts 1-5): No adverse events (AEs) led to study discontinuation
- dose-limiting toxicity (DLTs) ([11]; Cohorts 1-5): no dose-limiting toxicity and None
- number of patients with treatment-emergent SAEs ([11]; Cohorts 1-5, 19 patients dosed): 7
- number of treatment-emergent serious adverse events (SAEs) ([11]; Cohorts 1-5, 19 patients dosed): 9
- treatment-emergent SAEs deemed related to the treatment ([11]; Cohorts 1-5, 19 patients dosed): none
- tolerability ([11]; Cohorts 1-5: 80, 150, 250, 400, 550 mg once daily, 19 patients): well tolerated
- AUC(0-t) [11, 15]: 4.89 µg·h/mL
- Cmax [11, 15]: 0.405 µg/mL
- Tmax [11, 15]: 2 h
- AUC(0-t) [11, 16]: 6.29 µg·h/mL
- Cmax [11, 16]: 0.622 µg/mL
- Tmax [11, 16]: 1 h
- half-life ([11]; oral, 80 mg, 80 mg QD, C2D1, N=1, read-out: t1/2 (converted)): 10 h
- AUC(0-t) [11, 17]: 9.65 µg·h/mL
- Cmax [11, 17]: 0.651 µg/mL
- Tmax [11, 17]: 2 h
- half-life ([11]; oral, 150 mg, 150 mg QD, C2D1, N = 1, read-out: t1/2 (converted)): 10.1 h
- AUC(0-t) [11, 18]: 18.2 µg·h/mL
- Cmax [11, 18]: 1.12 µg/mL
- Tmax [11, 18]: 3.33 h
- half-life ([11]; oral, 250 mg, 250 mg QD, C1D1, N = 1, read-out: t1/2 (converted)): 9.44 h
- AUC(0-t) [11, 19]: 10.6 µg·h/mL
- Tmax [11, 19]: 3 h
- Cmax ([11]; oral, 250 mg, 250 mg QD, C1D1, N=2 (1 subject with active gastritis excluded)): 0.797 µg/mL
- AUC(0-t) [11, 20]: 21.6 µg·h/mL
- Cmax [11, 20]: 1.38 µg/mL
- Tmax [11, 20]: 2 h
- half-life ([11]; oral, 400 mg, 400 mg QD, C1D1, N = 1, read-out: t1/2 (converted)): 10.1 h
- AUC(0-t) [11, 21]: 18.8 µg·h/mL
- Cmax [11, 21]: 1.54 µg/mL
- Tmax [11, 21]: 3 h
- half-life ([11]; oral, 400 mg, 400 mg QD, C2D1, N = 1, in parentheses: interpret with caution (large extrapolated AUC), read-out: t1/2 (converted)): 12.3 h
- AUC(0-t) [11, 22]: 32 µg·h/mL
- Cmax [11, 22]: 2.27 µg/mL
- Tmax [11, 22]: 3 h
- AUC(0-t) [11, 23]: 37.7 µg·h/mL
- Cmax [11, 23]: 2.55 µg/mL
- Tmax [11, 23]: 2.67 h
- half-life ([11]; oral, read-out: Human Half life): 10 to 16 h
- half-life ([11]; po, 80 mg, 80 mg QD, C1D1, N=1, in parentheses: interpret with caution (large extrapolated AUC), read-out: t1/2 (converted)): 14.9 h
- half-life ([11]; po, 150 mg, 150 mg QD, C1D1, N=3, in parentheses: interpret with caution (large extrapolated AUC), read-out: t1/2 (converted)): 15.6 h
- half-life ([11]; po, 550 mg, 550 mg QD, C1D1, N=6, in parentheses: interpret with caution (large extrapolated AUC), read-out: t1/2 (converted)): 13.5 h
- inhibition at 550 mg ([12]; Homo sapiens, PBMC, 550 mg dose level, 24 h post dose): 90%
- PBMC pERK inhibition ([12]; cohort 5 (550 mg), 4 hours post dose): ~95%
- IC50 [13]: > 100 µM
- inhibition of hERG activity relative to vehicle control ([13]; 100 μM): 25.7%
- effect on hERG channel activity ([13]; 0.3 to 30 μM): no effect
